Experimental data: patent publication US11072634B2, “Inhibitors of transglutaminases” (Zedira GmbH, priority 2016, dated 2021)

Experiments:
TG2 [1] = biological target: T1, TG2 (Rattus norvegicus, UniProt Q9WVJ6); test: TG2 activity in NRK52E cell homogenates (Tissue Transglutaminase Pico-Assay Kit); type: cell-based; conditions: 6/24/36 mM glucose, 10-100 μM inhibitor
T1 construct: endogenous in cells; host or cells: NRK52E
T1 sequence (Q9WVJ6 1-686): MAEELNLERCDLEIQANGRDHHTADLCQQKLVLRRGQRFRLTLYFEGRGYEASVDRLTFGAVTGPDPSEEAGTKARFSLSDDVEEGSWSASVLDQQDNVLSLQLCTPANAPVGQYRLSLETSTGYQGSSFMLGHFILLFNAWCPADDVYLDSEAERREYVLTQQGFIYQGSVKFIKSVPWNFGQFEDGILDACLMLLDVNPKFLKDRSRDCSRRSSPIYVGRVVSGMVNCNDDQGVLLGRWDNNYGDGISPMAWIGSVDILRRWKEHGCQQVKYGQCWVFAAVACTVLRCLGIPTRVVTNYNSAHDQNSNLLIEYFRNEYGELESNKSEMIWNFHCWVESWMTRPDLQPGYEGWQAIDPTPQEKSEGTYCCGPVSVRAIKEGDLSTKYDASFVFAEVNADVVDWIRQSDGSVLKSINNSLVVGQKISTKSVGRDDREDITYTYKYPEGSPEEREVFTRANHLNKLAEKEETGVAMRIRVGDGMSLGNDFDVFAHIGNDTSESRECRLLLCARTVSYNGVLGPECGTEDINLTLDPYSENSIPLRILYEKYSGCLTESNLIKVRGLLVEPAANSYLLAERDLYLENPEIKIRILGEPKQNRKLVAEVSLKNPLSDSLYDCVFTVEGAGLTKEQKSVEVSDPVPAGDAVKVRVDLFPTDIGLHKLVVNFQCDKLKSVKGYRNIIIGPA
Experimental: (§1) Fibrosis is a hallmark in diabetic nephropathy and chronic kidney diseases. Proximal tubular epithelial cells show increased TG2 activity and increased extracellular matrix proteins (ECM) accumulation under hyperglycemic conditions. ECM accumulation is a hall mark of fibrosis. […] TG2-activity and ECM-accumulation was measured. Rattus norvegicus kidney derived cell line NRK52E was grown at 37° C. in a humidified atmosphere at 5% (v/v) CO2 in DMEM (Dulbecco's modified Eagle's medium) containing 100 μg/mL streptomycin, 100 units/ml penicillin, […], and 10% (v/v) fetal calf serum. For simulation of normal physiological conditions 6 mM D-glucose were added to the medium, while addition of 24 mM and 36 mM D-glucose simulated hyperglycemic conditions. Reversible TG2 inhibitor E06 in the concentrations indicated in FIG. 1A was added at the time of plating to the medium. Reversible TG2 inhibitor E22 in the concentrations indicated in FIG. 2A was added at the time of plating to the medium.
TG2-activity was determined in cell homogenates. […]
TG2-activity was measured using the TG2-selective Tissue Transglutaminase Pico-Assay Kit (#M003, Zedira, Darmstadt, Germany) according to the manufacturer's instructions. […]

NRK52E cells = test: Extracellular matrix protein deposition of NRK52E cells (DC-protein-assay); type: cell-based, Rattus norvegicus; conditions: hyperglycemic glucose concentrations
Experimental: as §1
For the determination of extracellular matrix proteins (ECM) deposition, cells grown in 10 cm Petri-dishes were removed with 1 mL sodium deoxycholate (0.1%) -EDTA (2 mM)-solution. ECM proteins remaining on the plate were solubilized by digestion with trypsin (0.2 mg/mL) -EDTA (2 mM) solution. […] Protein concentration was determined using the DC-protein-assay (BioRad, #5000111).

TG2 [2] = biological target: T2, TG2 (Homo sapiens, UniProt P21980); test: Transglutaminase activity of homogenates of LX-2 cells; type: cell-based; conditions: LX-2, 100 μM, 12 days; read-out: Transglutaminase activity, of the inhibitor free control
T2 sequence (P21980 1-687): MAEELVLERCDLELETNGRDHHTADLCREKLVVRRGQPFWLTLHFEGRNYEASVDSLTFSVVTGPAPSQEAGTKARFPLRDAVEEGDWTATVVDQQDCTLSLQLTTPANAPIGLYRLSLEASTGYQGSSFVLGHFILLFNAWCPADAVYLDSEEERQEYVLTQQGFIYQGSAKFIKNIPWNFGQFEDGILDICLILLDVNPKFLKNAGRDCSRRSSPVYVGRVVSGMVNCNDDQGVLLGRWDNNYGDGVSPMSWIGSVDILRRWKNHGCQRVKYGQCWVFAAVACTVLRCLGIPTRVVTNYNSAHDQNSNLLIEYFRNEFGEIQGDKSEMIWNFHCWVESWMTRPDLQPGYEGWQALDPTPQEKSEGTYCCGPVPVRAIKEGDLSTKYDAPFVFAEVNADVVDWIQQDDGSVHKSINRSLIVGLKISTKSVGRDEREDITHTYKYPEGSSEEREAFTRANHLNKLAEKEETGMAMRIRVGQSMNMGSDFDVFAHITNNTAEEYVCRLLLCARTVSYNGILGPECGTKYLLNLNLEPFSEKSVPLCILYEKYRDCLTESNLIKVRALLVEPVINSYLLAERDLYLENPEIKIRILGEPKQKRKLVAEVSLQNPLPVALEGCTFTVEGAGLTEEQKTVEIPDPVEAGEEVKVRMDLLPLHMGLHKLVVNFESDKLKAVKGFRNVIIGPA
Experimental: A) Transglutaminase activity of homogenates from LX-2-cells grown in standard plastic 6-well plates in the presence of 0-200 μM E22 determined by TG2-selective Tissue Transglutaminase Pico-Assay Kit (#M003, Zedira, Darmstadt, Germany) according to the manufacturer's instructions.
Human hepatic stellate cell line LX-2 was cultured on standard plastic 6 well plates in Dulbecco's Modified Eagle's Medium containing 100 μg/mL streptomycin, 100 units/ml penicillin, 2 mM glutamine, and 10% (v/v) fetal calf serum. E22 was added to a concentration of 0 μM, 100 μM and 200 μM. Cells were grown at 37° C. and 5% CO2 humidified atmosphere. Medium was exchanged every two days.

Row | TG2 activity determined in the cell homogenates (TG2 [1]) | remaining activity at 100 µM (TG2 [2]) [%] | SMILES | increase of ECM (extracellular matrix protein deposition) (NRK52E cells)
1 | decreases | – | CC(=O)N[C@@H](CCC(=O)C(N)=O)C(=O)N1CCN(c2ccccc2Cl)CC1 [Compound E06, (S)-5-acetamido-6-(4-(2-chlorophenyl)piperazin-1-yl)-2,6-dioxohexanamide] | reduced in a dose dependent manner
2 | decreases | < 5 | CCCCCNC(=O)C(=O)CC[C@H](NC(=O)[C@@H]1CCCN1C(C)=O)C(=O)Nc1cccn(CC(=O)NCC(CC)CC)c1=O [Compound E22, (S)-2-((S)-1-acetylpyrrolidine-2-carboxamido)-N1-(1-(2-(2-ethylbutylamino)-2-oxoethyl)-2-oxo-1,2-dihydropyridin-3-yl)-5-oxo-N6-pentylhexanediamide] | reduced in a dose dependent manner
